According to US20220259593A1, “CONTROL OF MAMMALIAN GENE DOSAGE USING CRISPR” (The Regents of the University of California, priority 2019, published 2022):

Assays:
K562 CRISPRi cells [1] = assay: Perturb-seq pooled growth measurement (sgRNA counts, growth phenotype γ, relative activity); assay type: cell-based, human; details: γ relative to perfectly matched sgRNA (_00) of the same gene, day 10
K562 CRISPRi cells [2] = assay: as above; assay type: cell-based, human; details: for gamma_day5 / gamma_day10: pooled growth phenotype γ of the Perturb-seq sgRNA; for gamma_day5: day 5, K562 CRISPRi cells; for gamma_day10: day 10, K562 CRISPRi cells; for relative_activity_day5: γ relative to perfectly matched sgRNA (_00) of the same gene, day 5
Method in brief: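 sgRNA abundance was sequenced from genomic DNA of the same transduced population sampled on days two, seven and twelve. Phenotype γ compares normalized day seven and twelve counts with day two. Day-seven values (five days of growth) define relative sgRNA activity.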

Substance: RPS18_ + _33239917.23-P1P2_04 (guide GCTGCGATCCCGCTGGATCA; listed as DNA, chemistry not fully specified)
- relative_activity_day10 (K562 CRISPRi cells [1]): 0.1604
- gamma_day5 (K562 CRISPRi cells [2]): −0.08697
- gamma_day10 (K562 CRISPRi cells [2]): −0.08068
- relative_activity_day5 (K562 CRISPRi cells [2]): 0.1065

Substance: RAN_ + _131356438.23-P1P2_04 (guide GGCGGTCGCGGCGCTTAGGG; listed as DNA, chemistry not fully specified)
- relative_activity_day10 (K562 CRISPRi cells [1]): 0.5401
- gamma_day5 (K562 CRISPRi cells [2]): −0.0859
- gamma_day10 (K562 CRISPRi cells [2]): −0.08721
- relative_activity_day5 (K562 CRISPRi cells [2]): 0.4352

Substance: ALDOA_ + _30077139.23-P1P2_00 (guide GGTCACCAGGACCCCTTCTG; listed as DNA, chemistry not fully specified)
- relative_activity_day10 (K562 CRISPRi cells [1]): 1
- gamma_day5 (K562 CRISPRi cells [2]): −0.4127
- gamma_day10 (K562 CRISPRi cells [2]): −0.3665
- relative_activity_day5 (K562 CRISPRi cells [2]): 1

Substance: RPL9_ + _39460483.23-P1P2_04 (guide GGATGTTTCAGTGCTCGTGG; listed as DNA, chemistry not fully specified)
- relative_activity_day10 (K562 CRISPRi cells [1]): 0.4392
- gamma_day5 (K562 CRISPRi cells [2]): −0.4171
- gamma_day10 (K562 CRISPRi cells [2]): −0.2942
- relative_activity_day5 (K562 CRISPRi cells [2]): 0.3747

Substance: RPS14_ + _149829238.23-P1P2_01 (guide GAGACCCGGGCGCGACAATC; listed as DNA, chemistry not fully specified)
- relative_activity_day10 (K562 CRISPRi cells [1]): 0.9624
- gamma_day5 (K562 CRISPRi cells [2]): −0.7548
- gamma_day10 (K562 CRISPRi cells [2]): −0.4807
- relative_activity_day5 (K562 CRISPRi cells [2]): 0.9545

Substance: GINS1_ −_25388381.23-P1P2_08 (guide GGACTAGAGCGAAAGGAGTG; listed as DNA, chemistry not fully specified)
- relative_activity_day10 (K562 CRISPRi cells [1]): 0.9436
- gamma_day5 (K562 CRISPRi cells [2]): −1.039
- gamma_day10 (K562 CRISPRi cells [2]): −0.6723
- relative_activity_day5 (K562 CRISPRi cells [2]): 1.039

Substance: TUBB_ + _30688126.23-P1_01 (guide GCAGCAGGAAGGTTCTGAGA; listed as DNA, chemistry not fully specified)
- relative_activity_day10 (K562 CRISPRi cells [1]): 0.8743
- gamma_day5 (K562 CRISPRi cells [2]): −0.926
- gamma_day10 (K562 CRISPRi cells [2]): −0.6119
- relative_activity_day5 (K562 CRISPRi cells [2]): 1.032

Substance: CAD_ + _27440280.23-P1P2_06 (guide GGCTGGAGAGTAGCCGGGCG; listed as DNA, chemistry not fully specified)
- relative_activity_day10 (K562 CRISPRi cells [1]): 0.4592
- gamma_day5 (K562 CRISPRi cells [2]): −0.3975
- gamma_day10 (K562 CRISPRi cells [2]): −0.3141
- relative_activity_day5 (K562 CRISPRi cells [2]): 0.5153

Substance: EIF2S1_ −_67827080.23-P1P2_07 (guide GAGCGAAGCGCTCGCTGAGG; listed as DNA, chemistry not fully specified)
- relative_activity_day10 (K562 CRISPRi cells [1]): 0.07767
- gamma_day5 (K562 CRISPRi cells [2]): −0.08307
- gamma_day10 (K562 CRISPRi cells [2]): −0.04004
- relative_activity_day5 (K562 CRISPRi cells [2]): 0.09182

Substance: TUBB_ + _30688126.23-P1_00 (guide GCGGCAGGAAGGTTCTGAGA; listed as DNA, chemistry not fully specified)
- relative_activity_day10 (K562 CRISPRi cells [1]): 1
- gamma_day5 (K562 CRISPRi cells [2]): −0.897
- gamma_day10 (K562 CRISPRi cells [2]): −0.6999
- relative_activity_day5 (K562 CRISPRi cells [2]): 1

Substance: ALDOA_ + _30077139.23-P1P2_07 (guide GGTCACCAGGCCCCCTTCTG; listed as DNA, chemistry not fully specified)
- relative_activity_day10 (K562 CRISPRi cells [1]): 0.9143
- gamma_day5 (K562 CRISPRi cells [2]): −0.3609
- gamma_day10 (K562 CRISPRi cells [2]): −0.3351
- relative_activity_day5 (K562 CRISPRi cells [2]): 0.8744

Substance: COX11_ + _53045977.23-P1P2_04 (guide GGCTCTGGCGCCCTGGATGG; listed as DNA, chemistry not fully specified)
- relative_activity_day10 (K562 CRISPRi cells [1]): 0.8616
- gamma_day5 (K562 CRISPRi cells [2]): −0.1495
- gamma_day10 (K562 CRISPRi cells [2]): −0.2574
- relative_activity_day5 (K562 CRISPRi cells [2]): 0.8227

Substance: GATA1_ −_48645022.23-P1P2_03 (guide GTGCGCTTGCCACATCCCCA; listed as DNA, chemistry not fully specified)
- relative_activity_day10 (K562 CRISPRi cells [1]): 1.017
- gamma_day5 (K562 CRISPRi cells [2]): −0.9855
- gamma_day10 (K562 CRISPRi cells [2]): −0.6259
- relative_activity_day5 (K562 CRISPRi cells [2]): 1.024

Substance: DBR1_ + _137893744.23-P1P2_01 (guide GATTGCAGGAGTCTACACCC; listed as DNA, chemistry not fully specified)
- relative_activity_day10 (K562 CRISPRi cells [1]): 1.119
- gamma_day5 (K562 CRISPRi cells [2]): −0.5119
- gamma_day10 (K562 CRISPRi cells [2]): −0.5474
- relative_activity_day5 (K562 CRISPRi cells [2]): 1.124

Substance: ATP5E_ −_57607036.23-P1P2_14 (guide GGTGTCCAGGGGCACTGTGT; listed as DNA, chemistry not fully specified)
- relative_activity_day10 (K562 CRISPRi cells [1]): 0.156
- gamma_day5 (K562 CRISPRi cells [2]): −0.01233
- gamma_day10 (K562 CRISPRi cells [2]): −0.03506
- relative_activity_day5 (K562 CRISPRi cells [2]): 0.0697

Substance: HSPA9_ −_137911079.23-P1P2_04 (guide GGAGCTGCGCAATGCGGTGG; listed as DNA, chemistry not fully specified)
- relative_activity_day10 (K562 CRISPRi cells [1]): 0.2813
- gamma_day5 (K562 CRISPRi cells [2]): −0.2005
- gamma_day10 (K562 CRISPRi cells [2]): −0.1657
- relative_activity_day5 (K562 CRISPRi cells [2]): 0.211

Substance: GNB2L1_ + _180670873.23-P1P2_08 (guide GTGCAAGGTGGCGGCAGGAG; listed as DNA, chemistry not fully specified)
- relative_activity_day10 (K562 CRISPRi cells [1]): 1.033
- gamma_day5 (K562 CRISPRi cells [2]): −0.3061
- gamma_day10 (K562 CRISPRi cells [2]): −0.3155
- relative_activity_day5 (K562 CRISPRi cells [2]): 1.052

Substance: BCR_ + _23523092.23-P1P2_05 (guide GCGCGCGGCGCCCGTCTCAG; listed as DNA, chemistry not fully specified)
- relative_activity_day10 (K562 CRISPRi cells [1]): 0.4434
- gamma_day5 (K562 CRISPRi cells [2]): −0.3535
- gamma_day10 (K562 CRISPRi cells [2]): −0.2247
- relative_activity_day5 (K562 CRISPRi cells [2]): 0.4196

Substance: DUT_ + _48624411.23-P1P2_10 (guide GCGAGCGAGGAGACCAACGG; listed as DNA, chemistry not fully specified)
- relative_activity_day10 (K562 CRISPRi cells [1]): 0.4949
- gamma_day5 (K562 CRISPRi cells [2]): −0.3864
- gamma_day10 (K562 CRISPRi cells [2]): −0.3196
- relative_activity_day5 (K562 CRISPRi cells [2]): 0.4873

Substance: RPS14_ + _149829238.23-P1P2_13 (guide GAGGCCCGGGCGCGACAGTC; listed as DNA, chemistry not fully specified)
- relative_activity_day10 (K562 CRISPRi cells [1]): 0.3122
- gamma_day5 (K562 CRISPRi cells [2]): −0.2119
- gamma_day10 (K562 CRISPRi cells [2]): −0.1559
- relative_activity_day5 (K562 CRISPRi cells [2]): 0.268

Substance: RAN_ + _131356438.23-P1P2_02 (guide GGCGGCCGCTGCGCTTAGGG; listed as DNA, chemistry not fully specified)
- relative_activity_day10 (K562 CRISPRi cells [1]): 1.264
- gamma_day5 (K562 CRISPRi cells [2]): −0.2316
- gamma_day10 (K562 CRISPRi cells [2]): −0.2041
- relative_activity_day5 (K562 CRISPRi cells [2]): 1.173

Substance: CAD_ + _27440280.23-P1P2_07 (guide GGCTGGAGCGAAGCCGGGCG; listed as DNA, chemistry not fully specified)
- relative_activity_day10 (K562 CRISPRi cells [1]): 0.6811
- gamma_day5 (K562 CRISPRi cells [2]): −0.6026
- gamma_day10 (K562 CRISPRi cells [2]): −0.4659
- relative_activity_day5 (K562 CRISPRi cells [2]): 0.7812

Substance: GINS1_ −_25388381.23-P1P2_00 (guide GGACTAGAACGAAAGGAGTG; listed as DNA, chemistry not fully specified)
- relative_activity_day10 (K562 CRISPRi cells [1]): 1
- gamma_day5 (K562 CRISPRi cells [2]): −0.9993
- gamma_day10 (K562 CRISPRi cells [2]): −0.7125
- relative_activity_day5 (K562 CRISPRi cells [2]): 1

Substance: DBR1_ + _137893744.23-P1P2_08 (guide GTTTGCAGTAGTCTACACCC; listed as DNA, chemistry not fully specified)
- relative_activity_day10 (K562 CRISPRi cells [1]): 0.1075
- gamma_day5 (K562 CRISPRi cells [2]): −0.03529
- gamma_day10 (K562 CRISPRi cells [2]): −0.05261
- relative_activity_day5 (K562 CRISPRi cells [2]): 0.07746

Substance: MTOR_ + _11322547.23-P1P2_05 (guide GGGCAGGGGGCTTGAAGCGG; listed as DNA, chemistry not fully specified)
- relative_activity_day10 (K562 CRISPRi cells [1]): 0.6137
- gamma_day5 (K562 CRISPRi cells [2]): −0.4313
- gamma_day10 (K562 CRISPRi cells [2]): −0.3448
- relative_activity_day5 (K562 CRISPRi cells [2]): 0.6275

Substance: SEC61A1_ −_127771295.23-P1_01 (guide GGCACTGTCGTGTCTCTCGG; listed as DNA, chemistry not fully specified)
- relative_activity_day10 (K562 CRISPRi cells [1]): 0.5184
- gamma_day5 (K562 CRISPRi cells [2]): −0.4191
- gamma_day10 (K562 CRISPRi cells [2]): −0.2918
- relative_activity_day5 (K562 CRISPRi cells [2]): 0.4556

Substance: DBR1_ + _137893744.23-P1P2_00 (guide GTTTGCAGGAGTCTACACCC; listed as DNA, chemistry not fully specified)
- relative_activity_day10 (K562 CRISPRi cells [1]): 1
- gamma_day5 (K562 CRISPRi cells [2]): −0.4556
- gamma_day10 (K562 CRISPRi cells [2]): −0.4893
- relative_activity_day5 (K562 CRISPRi cells [2]): 1

Substance: COX11_ + _53045977.23-P1P2_05 (guide GGCTCTGGCGTCTTGGATGG; listed as DNA, chemistry not fully specified)
- relative_activity_day10 (K562 CRISPRi cells [1]): 0.3613
- gamma_day5 (K562 CRISPRi cells [2]): −0.0555
- gamma_day10 (K562 CRISPRi cells [2]): −0.108
- relative_activity_day5 (K562 CRISPRi cells [2]): 0.3055

Substance: RPS15_ −_1438413.23-P1P2_01 (guide GACCAAACCGATCTCTTCTG; listed as DNA, chemistry not fully specified)
- relative_activity_day10 (K562 CRISPRi cells [1]): −0.003782
- gamma_day5 (K562 CRISPRi cells [2]): 0.006616
- gamma_day10 (K562 CRISPRi cells [2]): 0.001422
- relative_activity_day5 (K562 CRISPRi cells [2]): −0.01064

Substance: GNB2L1_ + _180670873.23-P1P2_00 (guide GTGCAAGGCGGCGGCAGGAG; listed as DNA, chemistry not fully specified)
- relative_activity_day10 (K562 CRISPRi cells [1]): 1
- gamma_day5 (K562 CRISPRi cells [2]): −0.2908
- gamma_day10 (K562 CRISPRi cells [2]): −0.3054
- relative_activity_day5 (K562 CRISPRi cells [2]): 1
